This assay has as its system M17-TAU P301L cells. Nature of the assay: Tau-induced toxicity experiment: LDH leakage of retinoic acid incubated M17-TAU P301L cells. The class given is cell-based. As to conditions: Homo sapiens, Neuroblastoma cell, 168 h; reduction of LDH activity of retinoic acid incubated M17-TAU P301L neuroblastoma cells; 7 days incubation; Promega Cytotox 96 assay. An excerpt:
A TAU expression plasmid was constructed by sub-cloning the cDNA of human TAU-P301L (encoding for TAU with proline 301 substituted by a leucine residue) into mammalian expression vector pcDNA3.1 resulting in plasmid pcDNA3.1-TAU P301L. Plasmids pcDNA3.1 and pcDNA3.1-TAU P301L were transfected to human neuroblastoma cells ([…]; ATCC No. CRL-2267) and independent clonal lines with the plasmids stably integrated into the genome were selected. […] Expression of the TAU P301L genes in the cell lines was confirmed by Western analysis.
In degenerated or dead cells lactate dehydrogenase (LDH) is leaked out of the cells into the extracellular environment due to a loss of plasma-membrane integrity. This principle was used to determine cytotoxicity by quantifying the level of leaked LDH into the growth medium.
The detailed method for determining TAU cytotoxicity was as follows: From appropriate precultures of M17-3.1 and M17-TAU(P301L) cells were seeded at 2500 cells/cm2 in Optimem Reduced Serum without phenol red (Gibco, Cat. 31985-047) supplemented with 1% fetal calf serum, 1 mM sodium pyruvate, 1× non-essential amino acids, 500 μg/ml G418 0.5× antibiotic/antimycotic. After 3 h of incubation at 37° C./5% CO2 1 volume of Optimem Reduced Serum (same as described above; except without fetal calf serum) supplemented with 2.5 μM retinoic acid (RA) was added. The cells were further incubated for 7 days. Subsequently, LDH activity was determined using Promega Cytotox 96 Non-Radioactive cytotoxicity assay, (Cat. G1780) according the supplier's instructions.
The M17-TAU P301L cell line made it possible to assess the ability of novel compounds to counteract TAU cytotoxicity. […] These measurements were used to calculate EC50 values of table 2.
Exemplary compounds of the present invention are shown in table 2, with their chemical name and their EC50 value (expressed in nM) as determined from example 75 in the Tau-induced toxicity experiment.
As a reminder, the EC50 is the concentration giving half of the maximal effect. As for `O=C(NCCc1c[nH]c2ccc(Cl)cc12)c1ccc(-c2ccccc2)cc1` [Cpd002, N-(2-(5-chloro-1H-indol-3-yl)ethyl)biphenyl-4-carboxamide], a half-maximal response (EC50) required 130 nM.

`O=C(NCCc1c[nH]c2ccc(F)cc12)c1ccc(-c2ccccc2)cc1` [Cpd003, N-(2-(5-fluoro-1H-indol-3-yl)ethyl)biphenyl-4-carboxamide] came in with a concentration giving a half-maximal response (EC50) of 448 nM.

`Cc1ccc2[nH]cc(CCNC(=O)c3ccc(-c4ccccc4)cc3)c2c1` [Cpd004, N-(2-(5-methyl-1H-indol-3-yl)ethyl)biphenyl-4-carboxamide] displayed an EC50 of 238 nM.

`CCOC(=O)c1cnn(-c2ccc(C(=O)NCCc3c[nH]c4ccc(C)cc34)cc2)c1N` [Cpd005, ethyl 5-amino-1-(4-(2-(5-methyl-1H-indol-3-yl)ethylcarbamoyl)phenyl)-1H-pyrazole-4-carboxylate] returned a concentration for a half-maximal effect (EC50) of 297 nM.

As for `O=C(NCCc1c[nH]c2ccc(Cl)cc12)c1ccnc(N2CCOCC2)c1` [Cpd006, N-(2-(5-chloro-1H-indol-3-yl)ethyl)-2-morpholinoisonicotinamide], it took 876 nM to reach a half-maximal effect (EC50).

`O=C(NCCc1c[nH]c2ccc(F)cc12)c1ccnc(N2CCOCC2)c1` [Cpd007, N-(2-(5-fluoro-1H-indol-3-yl)ethyl)-2-morpholinoisonicotinamide]: the response was half-maximal at 1080 nM (EC50).

`O=C(NCCc1c[nH]c2ccc(Cl)cc12)c1ccccc1-c1ccccc1` [Cpd008, N-(2-(5-chloro-1H-indol-3-yl)ethyl)biphenyl-2-carboxamide] showed an EC50 of 249 nM.

For the molecule `O=C(NCCc1c[nH]c2ccc(Cl)cc12)c1cccc(-c2ccccc2)c1` [Cpd010, N-(2-(5-chloro-1H-indol-3-yl)ethyl)biphenyl-3-carboxamide], a half-maximal response (EC50) required 187 nM.

`Cc1cccc(C)c1-c1ccc(C(=O)NCCc2c[nH]c3ccc(Cl)cc23)cc1` [Cpd011, N-(2-(5-chloro-1H-indol-3-yl)ethyl)-2′,6′-dimethylbiphenyl-4-carboxamide]: the 50% effective concentration (EC50) was 236 nM.

The molecule `O=C(NCCc1c[nH]c2ccc(Cl)cc12)c1cccc(-c2ccc(O)cc2)c1` [Cpd013, N-(2-(5-chloro-1H-indol-3-yl)ethyl)-4′-hydroxybiphenyl-3-carboxamide] showed an EC50 of 77 nM.

`O=C(NCCc1c[nH]c2ccc(Cl)cc12)c1ccc(-c2ccc(O)cc2)cc1` [Cpd014, N-(2-(5-chloro-1H-indol-3-yl)ethyl)-4′-hydroxybiphenyl-4-carboxamide] yielded an EC50 of 57 nM.

The molecule `Cc1ccccc1-c1ccccc1C(=O)NCCc1c[nH]c2ccc(Cl)cc12` [Cpd015, N-(2-(5-chloro-1H-indol-3-yl)ethyl)-2′-methylbiphenyl-2-carboxamide] gave an EC50 of 381 nM.

In the case of `Cc1cccc(-c2cccc(C(=O)NCCc3c[nH]c4ccc(Cl)cc34)c2)c1` [Cpd019, N-(2-(5-chloro-1H-indol-3-yl)ethyl)-3′-methylbiphenyl-3-carboxamide], it took 709 nM to reach a half-maximal effect (EC50).

`Cc1ccc(-c2ccccc2C(=O)NCCc2c[nH]c3ccc(Cl)cc23)cc1` [Cpd021, N-(2-(5-chloro-1H-indol-3-yl)ethyl)-4′-methylbiphenyl-2-carboxamide] came in with a half-maximal effective concentration (EC50) of 237 nM.

Molecule `Cc1ccc(-c2cccc(C(=O)NCCc3c[nH]c4ccc(Cl)cc34)c2)cc1` [Cpd022, N-(2-(5-chloro-1H-indol-3-yl)ethyl)-4′-methylbiphenyl-3-carboxamide] yielded an EC50 of 354 nM.

Regarding `Cc1ccc(-c2ccc(C(=O)NCCc3c[nH]c4ccc(Cl)cc34)cc2)cc1` [Cpd023, N-(2-(5-chloro-1H-indol-3-yl)ethyl)-4′-methylbiphenyl-4-carboxamide], the EC50 was 235 nM.

The molecule `O=C(NCCc1c[nH]c2ccc(Cl)cc12)c1ccc(N2CCOCC2)nc1` [Cpd024, N-(2-(5-chloro-1H-indol-3-yl)ethyl)-6-morpholinonicotinamide] showed an EC50 of 765 nM.

`O=C(NCCc1c[nH]c2ccc(Cl)cc12)c1ccccc1-n1cccn1` [Cpd025, N-(2-(5-chloro-1H-indol-3-yl)ethyl)-2-(1H-pyrazol-1-yl)benzamide]: the EC50 worked out at 760 nM.

For the molecule `COc1cccc(-c2ccccc2C(=O)NCCc2c[nH]c3ccc(Cl)cc23)c1` [Cpd029, N-(2-(5-chloro-1H-indol-3-yl)ethyl)-3′-methoxybiphenyl-2-carboxamide], the response was half-maximal at 523 nM (EC50).

In turn, `COc1ccc(-c2ccccc2C(=O)NCCc2c[nH]c3ccc(Cl)cc23)cc1` [Cpd032, N-(2-(5-chloro-1H-indol-3-yl)ethyl)-4′-methoxybiphenyl-2-carboxamide] yielded a concentration for a half-maximal effect (EC50) of 200 nM.

Regarding `COc1ccc(-c2cccc(C(=O)NCCc3c[nH]c4ccc(Cl)cc34)c2)cc1` [Cpd033, N-(2-(5-chloro-1H-indol-3-yl)ethyl)-4′-methoxybiphenyl-3-carboxamide], a half-maximal response (EC50) required 223 nM.

In turn, `COc1ccc(-c2ccc(C(=O)NCCc3c[nH]c4ccc(Cl)cc34)cc2)cc1` [Cpd034, N-(2-(5-chloro-1H-indol-3-yl)ethyl)-4′-methoxybiphenyl-4-carboxamide] gave an EC50 of 91 nM.

The molecule `O=C(NCCc1c[nH]c2ccc(Cl)cc12)c1ccccc1-c1ccccc1F` [Cpd035, N-(2-(5-chloro-1H-indol-3-yl)ethyl)-2′-fluorobiphenyl-2-carboxamide] showed an EC50 of 165 nM.

`O=C(NCCc1c[nH]c2ccc(Cl)cc12)c1cccc(-c2ccccc2F)c1` [Cpd036, N-(2-(5-chloro-1H-indol-3-yl)ethyl)-2′-fluorobiphenyl-3-carboxamide] registered an EC50 of 139 nM.

On to `O=C(NCCc1c[nH]c2ccc(Cl)cc12)c1ccc(-c2ccccc2F)cc1` [Cpd037, N-(2-(5-chloro-1H-indol-3-yl)ethyl)-2′-fluorobiphenyl-4-carboxamide], for which the EC50 came to 61 nM.

Take `O=C(NCCc1c[nH]c2ccc(Cl)cc12)c1ccccc1-c1cccc(F)c1` [Cpd038, N-(2-(5-chloro-1H-indol-3-yl)ethyl)-3′-fluorobiphenyl-2-carboxamide]: the response was half-maximal at 226 nM (EC50).

The molecule `O=C(NCCc1c[nH]c2ccc(Cl)cc12)c1ccc(-c2cccc(F)c2)cc1` [Cpd039, N-(2-(5-chloro-1H-indol-3-yl)ethyl)-3′-fluorobiphenyl-4-carboxamide] gave an EC50 of 139 nM.

`O=C(NCCc1c[nH]c2ccc(Cl)cc12)c1ccccc1-c1ccc(F)cc1` [Cpd040, N-(2-(5-chloro-1H-indol-3-yl)ethyl)-4′-fluorobiphenyl-2-carboxamide] displayed a 50% effective concentration (EC50) of 208 nM.

`O=C(NCCc1c[nH]c2ccc(Cl)cc12)c1cccc(-c2ccc(F)cc2)c1` [Cpd041, N-(2-(5-chloro-1H-indol-3-yl)ethyl)-4′-fluorobiphenyl-3-carboxamide] registered an EC50 of 186 nM.

In turn, `O=C(NCCc1c[nH]c2ccc(Cl)cc12)c1ccc(-c2ccc(F)cc2)cc1` [Cpd042, N-(2-(5-chloro-1H-indol-3-yl)ethyl)-4′-fluorobiphenyl-4-carboxamide] registered a half-maximal effective concentration (EC50) of 228 nM.

For `N#Cc1ccccc1-c1cccc(C(=O)NCCc2c[nH]c3ccc(Cl)cc23)c1` [Cpd043, N-(2-(5-chloro-1H-indol-3-yl)ethyl)-2′-cyanobiphenyl-3-carboxamide], the response was half-maximal at 169 nM (EC50).

The molecule `N#Cc1ccccc1-c1ccc(C(=O)NCCc2c[nH]c3ccc(Cl)cc23)cc1` [Cpd044, N-(2-(5-chloro-1H-indol-3-yl)ethyl)-2′-cyanobiphenyl-4-carboxamide] registered a concentration for a half-maximal effect (EC50) of 75 nM.

In the case of `O=C(NCCc1c[nH]c2ccc(Cl)cc12)c1cccc(-c2ccncc2)c1` [Cpd045, N-(2-(5-chloro-1H-indol-3-yl)ethyl)-3-(pyridin-4-yl)benzamide], the EC50 is 327 nM.

As for `O=C(NCCc1c[nH]c2ccc(Cl)cc12)c1ccc(-c2ccncc2)cc1` [Cpd046, N-(2-(5-chloro-1H-indol-3-yl)ethyl)-4-(pyridin-4-yl)benzamide], it took 269 nM to reach a half-maximal effect (EC50).

Molecule `O=C(NCCc1c[nH]c2ccc(Cl)cc12)c1cccc(-c2cccc(F)c2)c1` [Cpd047, N-(2-(5-chloro-1H-indol-3-yl)ethyl)-3′-fluorobiphenyl-3-carboxamide] had an EC50 of 408 nM.

`N#Cc1cccc(-c2ccccc2C(=O)NCCc2c[nH]c3ccc(Cl)cc23)c1` [Cpd048, N-(2-(5-chloro-1H-indol-3-yl)ethyl)-3′-cyanobiphenyl-2-carboxamide] registered an EC50 of 232 nM.

With `N#Cc1cccc(-c2cccc(C(=O)NCCc3c[nH]c4ccc(Cl)cc34)c2)c1` [Cpd049, N-(2-(5-chloro-1H-indol-3-yl)ethyl)-3′-cyanobiphenyl-3-carboxamide], the 50% effective concentration (EC50) worked out at 61 nM.

For `N#Cc1cccc(-c2ccc(C(=O)NCCc3c[nH]c4ccc(Cl)cc34)cc2)c1` [Cpd050, N-(2-(5-chloro-1H-indol-3-yl)ethyl)-3′-cyanobiphenyl-4-carboxamide], the midpoint of the response, the EC50, lay at 24 nM.

Take `N#Cc1ccc(-c2ccccc2C(=O)NCCc2c[nH]c3ccc(Cl)cc23)cc1` [Cpd051, N-(2-(5-chloro-1H-indol-3-yl)ethyl)-4′-cyanobiphenyl-2-carboxamide]: the concentration giving a half-maximal response (EC50) is 325 nM.

For the origin of these results see patent US9284271B2, “Compounds for the treatment of neurodegenerative diseases” (Katholieke Universiteit Leuven, K.U. Leuven R&D, priority 2010, dated 2016).
